The values that follow come from patent publication US6849712B1, “Peptides with β1 integrin subunit dependent cell adhesion modulating activity” (Regents of the University of Minnesota, priority 1998, dated 2005).

Experiment [1] relates to peripheral blood mononuclear cells and spleen cells. The note with it: reported, Wahl et al.; cited from earlier work.
The conditions of experiment [2]: in vivo rat model, reported; cited from earlier work.
The target of experiment [3] is α4β1 integrin (Homo sapiens, UniProt P05556+P13612). The experiment is described as follows: α4β1 integrin-dependent Mn+2 stimulated M16B adhesion to rCS1. It is filed as cell-based. Also on record: endogenous in cells. The note with it: soluble peptide.
Chain of α4β1 integrin (P13612 34-1032): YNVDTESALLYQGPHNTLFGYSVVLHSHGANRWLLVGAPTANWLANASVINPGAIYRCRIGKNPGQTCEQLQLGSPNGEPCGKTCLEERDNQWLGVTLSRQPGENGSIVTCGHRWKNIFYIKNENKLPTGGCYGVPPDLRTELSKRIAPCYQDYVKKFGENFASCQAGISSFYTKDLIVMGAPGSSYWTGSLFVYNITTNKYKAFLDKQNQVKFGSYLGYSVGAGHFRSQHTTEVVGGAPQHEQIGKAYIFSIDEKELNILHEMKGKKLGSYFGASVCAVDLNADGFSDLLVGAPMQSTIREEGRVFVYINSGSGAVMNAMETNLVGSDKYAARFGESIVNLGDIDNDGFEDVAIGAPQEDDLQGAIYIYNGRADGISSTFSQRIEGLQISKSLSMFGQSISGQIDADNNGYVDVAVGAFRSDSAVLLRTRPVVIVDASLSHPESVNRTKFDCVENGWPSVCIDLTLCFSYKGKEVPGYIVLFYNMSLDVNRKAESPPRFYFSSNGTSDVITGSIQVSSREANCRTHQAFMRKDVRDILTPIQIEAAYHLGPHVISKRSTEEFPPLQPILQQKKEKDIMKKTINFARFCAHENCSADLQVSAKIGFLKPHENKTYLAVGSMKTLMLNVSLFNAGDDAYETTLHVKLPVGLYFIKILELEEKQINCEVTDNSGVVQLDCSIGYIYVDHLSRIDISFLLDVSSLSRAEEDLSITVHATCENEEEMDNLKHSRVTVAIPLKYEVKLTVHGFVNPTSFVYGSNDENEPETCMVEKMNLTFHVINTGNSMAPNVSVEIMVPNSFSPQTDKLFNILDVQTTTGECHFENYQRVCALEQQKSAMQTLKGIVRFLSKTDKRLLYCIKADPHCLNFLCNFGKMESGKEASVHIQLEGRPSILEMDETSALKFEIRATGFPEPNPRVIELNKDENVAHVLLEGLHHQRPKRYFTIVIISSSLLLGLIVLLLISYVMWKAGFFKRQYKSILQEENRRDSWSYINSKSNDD
Chain of α4β1 integrin (P05556 21-798): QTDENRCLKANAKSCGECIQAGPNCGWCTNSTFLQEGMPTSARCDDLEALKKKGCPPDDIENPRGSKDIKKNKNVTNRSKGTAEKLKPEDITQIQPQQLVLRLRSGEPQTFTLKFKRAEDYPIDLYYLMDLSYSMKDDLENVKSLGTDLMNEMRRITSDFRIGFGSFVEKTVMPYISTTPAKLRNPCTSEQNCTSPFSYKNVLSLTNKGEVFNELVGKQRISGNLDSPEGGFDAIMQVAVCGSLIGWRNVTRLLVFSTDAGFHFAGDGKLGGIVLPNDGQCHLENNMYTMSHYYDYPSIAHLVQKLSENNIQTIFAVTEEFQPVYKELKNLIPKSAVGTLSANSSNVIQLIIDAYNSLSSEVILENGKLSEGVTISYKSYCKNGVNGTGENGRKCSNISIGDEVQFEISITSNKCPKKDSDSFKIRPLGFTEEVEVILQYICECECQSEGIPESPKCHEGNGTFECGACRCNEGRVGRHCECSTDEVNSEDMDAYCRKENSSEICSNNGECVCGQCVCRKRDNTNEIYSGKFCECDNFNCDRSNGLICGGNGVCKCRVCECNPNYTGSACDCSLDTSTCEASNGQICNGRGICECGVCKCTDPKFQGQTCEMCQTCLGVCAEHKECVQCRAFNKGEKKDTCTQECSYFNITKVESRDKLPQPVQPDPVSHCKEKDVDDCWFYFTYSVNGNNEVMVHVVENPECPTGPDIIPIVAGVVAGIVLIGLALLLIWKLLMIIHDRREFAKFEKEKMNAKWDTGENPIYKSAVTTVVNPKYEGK
For experiment [4], the system named is α2β1 and α3β1 integrin. The experiment is described as follows: Inhibition of α2β1, α3β1 integrin dependent human melanoma M14#5 cell adhesion to laminin and type IV collagen. The experiment is classed as cell-based. The note with it: 0.5 mg/ml peptide (0.42 mM), 30 minutes. As for the experimental part:
An experiment was conducted to examine the ability of FN-C/H V+Y (SEQ ID NO:1) to inhibit α2β1, α3β1 integrin dependent cell adhesion using an assay based on human melanoma cells (M14#5).
Laminin, type IV collagen and BSA were coated overnight in a 96 well microtiter plate at 10 μg/ml and blocked with 0.3% BSA. M14#5 cells were preincubated with 0.5 mg/ml of peptide (equivalent to 0.42 mM FN-C/H V and scrambled FN-C/H V and 0.17 mM CSI) and allowed to adhere to substrates for 30 minutes.

Experiment [5] deals with T1, α1β2 (LFA-1) integrin (Homo sapiens, UniProt P05107+P20701).
T1 construct: the B-cell line M16B (which both express functional α4β1 and α1β2 integrin); endogenous in cells; host or cells: M16B B-cell line
The experiment is described as follows: α1β2 (LFA-1) integrin dependent M16B adhesion to rICAM. It is filed as cell-based. As for the experimental part: To determine whether inhibition of adhesion by soluble FN-C/H V is specific for b1 integrins, the ability of this peptide to inhibit β2 integrin-dependent adhesion was also evaluated.

Experiment [6] has as its system VCAM. The note with it: reported; cited from earlier work.
The target of experiment [7] is T2, α5β1 integrin (Homo sapiens, UniProt P05556+P08648).
T2 construct: erythroleukemic cell line K562, which expresses α5β1 but not α4β1 integrin; endogenous in cells; host or cells: K562 cells
T2 sequence (P08648 42-894 limits assumed): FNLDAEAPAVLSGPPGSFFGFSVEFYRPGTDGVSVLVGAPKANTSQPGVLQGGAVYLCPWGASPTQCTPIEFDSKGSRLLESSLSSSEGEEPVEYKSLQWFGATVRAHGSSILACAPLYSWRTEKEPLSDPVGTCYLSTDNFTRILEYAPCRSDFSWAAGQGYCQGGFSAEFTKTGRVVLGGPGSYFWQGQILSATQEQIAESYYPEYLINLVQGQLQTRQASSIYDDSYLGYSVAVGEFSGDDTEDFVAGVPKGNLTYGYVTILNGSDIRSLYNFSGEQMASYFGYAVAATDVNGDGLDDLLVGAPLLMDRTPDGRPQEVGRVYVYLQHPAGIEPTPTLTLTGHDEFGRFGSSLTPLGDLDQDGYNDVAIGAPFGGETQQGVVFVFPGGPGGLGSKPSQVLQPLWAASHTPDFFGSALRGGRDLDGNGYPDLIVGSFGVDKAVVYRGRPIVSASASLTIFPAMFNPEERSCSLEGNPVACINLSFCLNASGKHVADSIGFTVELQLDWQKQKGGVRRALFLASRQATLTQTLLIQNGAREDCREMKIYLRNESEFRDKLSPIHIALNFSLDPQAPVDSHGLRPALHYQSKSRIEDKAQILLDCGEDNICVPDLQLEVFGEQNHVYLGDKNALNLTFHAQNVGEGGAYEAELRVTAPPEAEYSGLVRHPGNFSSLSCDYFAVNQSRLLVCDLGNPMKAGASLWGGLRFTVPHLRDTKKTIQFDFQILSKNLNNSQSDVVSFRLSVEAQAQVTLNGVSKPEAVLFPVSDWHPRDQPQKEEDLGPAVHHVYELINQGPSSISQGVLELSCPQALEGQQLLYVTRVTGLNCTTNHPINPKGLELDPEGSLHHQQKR
T2 sequence (P08648 895-1049 limits assumed): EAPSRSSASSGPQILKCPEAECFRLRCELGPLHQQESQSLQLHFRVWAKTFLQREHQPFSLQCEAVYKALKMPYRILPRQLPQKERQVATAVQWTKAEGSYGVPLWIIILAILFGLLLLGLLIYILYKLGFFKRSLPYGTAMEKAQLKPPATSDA
T2 sequence (P05556 21-798): as the sequence (P05556 21-798) above
The experiment is described as follows: Inhibition of α5β1 integrin dependent Mn+2 stimulated adhesion of K562 cells to fibronectin (FN). It is filed as cell-based. As for the experimental part: The cell adhesion assay was carried out as described above. […] Each data point represents the mean of triplicate determinations and the error bars represent the standard deviation of the mean. The solid black line represents adhesion to the negative control substrate, BSA.

Experiment [8] concerns the target α5β1 integrin (UniProt P08648 42-1049; P05556 21-798). The experiment is described as follows: cell-based or functional assay.

Where no end group is shown, it is not given here.

Chain of α5β1 integrin (UniProt P08648 42-1049; P05556 21-798) (P08648 42-1049, chain 1 of 2): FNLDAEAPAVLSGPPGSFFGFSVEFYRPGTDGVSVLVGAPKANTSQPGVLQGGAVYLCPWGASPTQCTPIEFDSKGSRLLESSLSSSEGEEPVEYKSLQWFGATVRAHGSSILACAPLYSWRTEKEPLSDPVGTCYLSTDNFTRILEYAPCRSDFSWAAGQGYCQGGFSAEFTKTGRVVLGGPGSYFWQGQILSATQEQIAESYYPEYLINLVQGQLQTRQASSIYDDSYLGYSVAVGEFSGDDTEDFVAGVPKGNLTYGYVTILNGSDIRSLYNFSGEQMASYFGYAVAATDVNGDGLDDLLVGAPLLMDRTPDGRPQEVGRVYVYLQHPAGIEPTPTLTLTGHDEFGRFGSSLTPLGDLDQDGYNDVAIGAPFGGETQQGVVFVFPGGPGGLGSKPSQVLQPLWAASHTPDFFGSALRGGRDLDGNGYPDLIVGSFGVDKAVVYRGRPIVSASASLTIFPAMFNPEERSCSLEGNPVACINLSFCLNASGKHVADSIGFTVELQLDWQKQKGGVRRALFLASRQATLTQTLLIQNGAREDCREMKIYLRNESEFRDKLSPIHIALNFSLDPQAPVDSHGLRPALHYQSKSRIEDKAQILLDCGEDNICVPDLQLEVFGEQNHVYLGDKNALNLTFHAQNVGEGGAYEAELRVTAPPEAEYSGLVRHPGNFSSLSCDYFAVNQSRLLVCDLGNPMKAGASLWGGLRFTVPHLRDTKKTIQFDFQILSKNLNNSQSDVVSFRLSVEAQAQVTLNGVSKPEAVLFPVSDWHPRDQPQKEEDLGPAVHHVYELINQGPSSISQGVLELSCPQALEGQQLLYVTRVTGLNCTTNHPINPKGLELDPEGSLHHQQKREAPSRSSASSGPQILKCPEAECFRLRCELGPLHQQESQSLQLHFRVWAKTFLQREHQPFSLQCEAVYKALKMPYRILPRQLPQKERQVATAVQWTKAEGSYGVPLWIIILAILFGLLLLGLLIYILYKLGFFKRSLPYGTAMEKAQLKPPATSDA
Chain of α5β1 integrin (UniProt P08648 42-1049; P05556 21-798) (P05556 21-798, chain 2 of 2): as the sequence (P05556 21-798) above

In the case of “YEKPGSPPREV-VPRPRPGVY (YEKPGSPPREVVPRPRPGVY; listed as Homo sapiens) [FN-C/H I+Y]”, the “inhibition of leukocyte adhesion to fibronectin in vitro” value (from here on “inhibition of leukocyte adhesion”) in experiment [1] was “inhibit leukocyte adhesion to fibronectin in vitro”. Moreover, in experiment [2], the anti-inflammatory properties entry is reported as “exhibit anti-inflammatory properties”.

Regarding “KNNQKSEPLIGR-KKTY (KNNQKSEPLIGRKKTY; listed as Homo sapiens) [FN-C/H II+Y]”, the “inhibition of leukocyte adhesion” value in experiment [1] is reported as “inhibit leukocyte adhesion to fibronectin in vitro”. In experiment [2], the anti-inflammatory properties entry is reported as “exhibit anti-inflammatory properties”.

For the molecule “DELPQLVTLPHPNLHGPEILDVPST (listed as Homo sapiens) [CS1, fibronectin residues 1961-1985]”, the “inhibition of M16B adhesion to rCS1” value in experiment [3] is on record as “completely inhibited”.

Turning to WQPPRARIY-OH [SEQ ID NO:1], the “inhibition of M16B adhesion to rCS1” value in experiment [3] is given as “completely inhibited”. Also, the “inhibition of M14#5 cell adhesion to laminin” value in experiment [4] (laminin coated substrate) was “inhibited”. In addition, the “inhibition of M14#5 cell adhesion to type IV collagen” value in experiment [4] (type IV collagen coated substrate) is given as “inhibited”. Besides, the “inhibition of leukocyte adhesion” value in experiment [1] was “inhibit leukocyte adhesion to fibronectin in vitro”. Moreover, the anti-inflammatory properties result in experiment [2] was “exhibit anti-inflammatory properties”. Further, the “inhibition of M16B adhesion to rICAM” value in experiment [5] was “not inhibited”. The “inhibition of adhesion to VCAM” value in experiment [6] is reported as “inhibit adhesion to VCAM”. Also, the “inhibition of K562 adhesion to FN at the maximal concentration tested” value in experiment [7] (0.84 mM peptide, K562 cells stimulated with 1 mM MnCl2) is “completely inhibited”. In addition, the IC50 in experiment [7] (K562 cells stimulated with 1 mM MnCl2, adhesion to FN, read-out: half-maximal inhibitory concentration) is 200 µM.

In the case of PRARIY, in experiment [8], the “half-maximal inhibitory concentration (K562 adhesion to FN)” value is around 0.2 mM.
